Measured values: US20230159527A1, “COMPOUNDS AS BCL-2 INHIBITORS” (Fochon Pharmaceuticals, Ltd., priority 2020, published 2023)

Experiments:
Type in all cases: cell-based
[1] = tested on: RS4;11 cells; assay: Cell proliferation assay, RS4;11 cells (MTS, 72 h); conditions: Homo sapiens, RS4;11 cell proliferation
Method in brief: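 RS4;11 cells (30000/well, RPMI-1640 plus 10% FBS) treated with compounds at 1.5-10000 nM for 72 h at 37° C, 5% CO2. Viability by MTS (2 h), absorbance at 490 nm with 650 nm reference; IC50 from proliferation inhibition.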

[2] = tested on: Toledo cells; assay: Cell proliferation assay, Toledo cells (MTS, 72 h); conditions: Homo sapiens, Toledo cells, MTS, read-out: Toledo IC50
Method in brief: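 IC50 was derived from 490 nm absorbance after a 2 h MTS step. Before that, compounds at 1.5–10000 nM final (nine points) acted on Toledo cells for 72 h at 37 °C, 5% CO2. Cells were seeded at 30000/well in 10% FBS RPMI-1640 and rested 4 h before dosing.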

[3] = tested on: DoHH2 cells; assay: Cell proliferation assay, DoHH2 cells (MTS, 120 h); conditions: Homo sapiens, DOHH-2
Method in brief: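 DoHH2 cells in RPMI-1640 with 10% FBS were plated at 5000/well and rested 4 h. They were then exposed to compound at nine final concentrations (10000 to 1.5 nM) for 120 h at 37 °C. Viability was read by MTS (2 h, A490) and IC50 derived by curve fitting.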

CC(C)c1ccccc1[C@H]1CCCN1C1CC2(CCN(c3ccc(C(=O)NS(=O)(=O)c4cnc(NCC5C6COCC56)c([N+](=O)[O-])c4)c(Oc4cnc5[nH]ccc5c4)c3)CC2)C1 (stereo partly drawn) [Example A-27b, 2-((1H-pyrrolo[2,3-b]pyridin-5-yl)oxy)-N-((6-(((3-oxabicyclo[3.1.0]hexan-6-yl)methyl)amino)-5-nitro-pyridin-3-yl)sulfonyl)-4-(2-((R)-2-(2-isopropylphenyl)pyrrolidin-1-yl)-7-azaspiro[3.5]nonan-7-yl) benzamide]
IC50 [1]: ≤ 1 nM | IC50 [2]: 1 nM | IC50 [3]: ≤ 1 nM

CC(C)c1ccccc1[C@H]1CCCN1C1CC2(CCN(c3ccc(C(=O)NS(=O)(=O)c4cnc(NC[C@H]5CC[C@@](C)(O)CC5)c([N+](=O)[O-])c4)c(Oc4cnc5[nH]ccc5c4)c3)CC2)C1 [Example A-7a, 2-((1H-pyrrolo[2,3-b]pyridin-5-yl)oxy)-N-((6-((((1s,4s)-4-hydroxy-4-methylcyclohexyl)methyl)amino)-5-nitropyridin-3-yl)sulfonyl)-4-(2-((R)-2-(2-isopropylphenyl)pyrrolidin-1-yl)-7-azaspiro[3.5]nonan-7-yl)benzamide]
IC50 [1]: ≤ 1 nM | IC50 [2]: 1 nM | IC50 [3]: ≤ 1 nM

CC(C)c1ccccc1[C@H]1CCCN1C1CC2(CCN(c3ccc(C(=O)NS(=O)(=O)c4cnc(NCC5CCOCC5)c([N+](=O)[O-])c4)c(Oc4cnc5[nH]ccc5c4)c3)CC2)C1 [Example A-5b, (R)-2-((1H-pyrrolo[2,3-b]pyridin-5-yl)oxy)-4-(2-(2-(2-isopropylphenyl)pyrrolidin-1-yl)-7-azaspiro[3.5]nonan-7-yl)-N-((5-nitro-6-(((tetrahydro-2H-pyran-4-yl)methyl)amino)pyridin-3-yl)sulfonyl) benzamide]
IC50 [1]: ≤ 1 nM | IC50 [2]: 1 nM | IC50 [3]: ≤ 1 nM

CC(C)c1ccccc1[C@@H]1CCCN1C1CC2(CCN(c3ccc(C(=O)NS(=O)(=O)c4cc5c(c([N+](=O)[O-])c4)O[C@H](CN4CCOCC4)CO5)c(Oc4cnc5[nH]ccc5c4)c3)CC2)C1 (single isomer, unassigned) [Example E-39, 2-((1H-pyrrolo [2,3-b]pyridin-5-yl)oxy)-4-(2-((R or S)-2-(2-isopropylphenyl)pyrrolidin-1-yl)-7-azaspiro[3.5]nonan-7-yl)-N-(((R)-2-(morpholinomethyl)-8-nitro-2,3-dihydrobenzo [b][1,4]dioxin-6-yl)sulfonyl) benzamide]
IC50 [1]: ≤ 1 nM | IC50 [2]: 1 nM | IC50 [3]: ≤ 1 nM

CN1CCN(C2CC3(CCN(c4ccc(C(=O)NS(=O)(=O)c5cnc(NC[C@H]6CC[C@](C)(O)CC6)c([N+](=O)[O-])c5)c(Oc5cnc6[nH]ccc6c5)c4)CC3)C2)[C@H](c2ccccc2C2CC2)C1 (single isomer, unassigned) [Example A-40, 2-((1H-pyrrolo[2,3-b]pyridin-5-yl)oxy)-4-(2-((R or S)-2-(2-cyclopropylphenyl)-4-methylpiperazin-1-yl)-7-azaspiro[3.5]nonan-7-yl)-N-((6-((((1r,4r)-4-hydroxy-4-methylcyclohexyl)methyl)amino)-5-nitropyridin-3-yl)sulfonyl)benzamide]
IC50 [1]: ≤ 1 nM | IC50 [2]: 1 nM | IC50 [3]: ≤ 1 nM

CC1(O)CCC(CNc2ncc(S(=O)(=O)NC(=O)c3ccc(N4CCC5(CC4)CC(N4CCOC[C@H]4c4ccccc4C4CC4)C5)cc3Oc3cnc4[nH]ccc4c3)cc2[N+](=O)[O-])CC1 (single isomer, unassigned) [Example A-34, (R or S)-2-((1H-pyrrolo[2,3-b]pyridin-5-yl)oxy)-4-(2-(3-(2-cyclopropylphenyl)morpholino)-7-azaspiro[3.5]nonan-7-yl)-N-((6-(((4-hydroxy-4-methylcyclohexyl)methyl)amino)-5-nitropyridin-3-yl)sulfonyl) benzamide]
IC50 [1]: ≤ 1 nM | IC50 [2]: 7 nM | IC50 [3]: ≤ 1 nM

O=C(NS(=O)(=O)c1cnc(NCC2CCOCC2)c([N+](=O)[O-])c1)c1ccc(N2CCC3(CC2)CC(N2CCC[C@@H]2c2ccccc2C2CC2)C3)cc1Oc1cnc2[nH]ccc2c1 [Example A-3b, (R)-2-((1H-pyrrolo[2,3-b]pyridin-5-yl)oxy)-4-(2-(2-(2-cyclopropyl-phenyl)pyrrolidin-1-yl)-7-azaspiro [3.5]nonan-7-yl)-N-((5-nitro-6-(((tetrahydro-2H-pyran-4-yl)methyl)amino)pyridin-3-yl)sulfonyl) benzamide]
IC50 [1]: ≤ 1 nM | IC50 [2]: 1 nM | IC50 [3]: ≤ 1 nM

CC(C)c1ccccc1[C@H]1CCCN1C1CC2(CCN(c3ccc(C(=O)NS(=O)(=O)c4cnc(NC[C@H]5CC[C@](C)(O)CC5)c([N+](=O)[O-])c4)c(Oc4cnc5[nH]ccc5c4)c3)CC2)C1 [Example A-7b]
IC50 [1]: ≤ 1 nM | IC50 [2]: 1 nM | IC50 [3]: ≤ 1 nM

CC(C)c1ccccc1[C@@H]1COCCN1C1CC2(CCN(c3ccc(C(=O)NS(=O)(=O)c4cc5c(c([N+](=O)[O-])c4)O[C@H](CN4CCOCC4)CO5)c(Oc4cnc5[nH]ccc5c4)c3)CC2)C1 (single isomer, unassigned) [Example E-40, 2-((1H-pyrrolo [2,3-b]pyridin-5-yl)oxy)-4-(2-((R or S)-3-(2-isopropylphenyl)morpholino)-7-azaspiro[3.5]nonan-7-yl)-N-(((R)-2-(morpholinomethyl)-8-nitro-2,3-dihydrobenzo [b][1,4]dioxin-6-yl)sulfonyl) benzamide]
IC50 [1]: ≤ 1 nM | IC50 [2]: 1 nM | IC50 [3]: ≤ 1 nM

CC(C)c1ccccc1[C@@H]1COCCN1C1CC2(CCN(c3ccc(C(=O)NS(=O)(=O)c4cnc(NC[C@H]5CC[C@](C)(O)CC5)c([N+](=O)[O-])c4)c(Oc4cnc5[nH]ccc5c4)c3)CC2)C1 (single isomer, unassigned) [Example A-56b, 2-((1H-pyrrolo[2,3-b]pyridin-5-yl)oxy)-N-((6-((((1r,4r)-4-hydroxy-4-methylcyclohexyl)methyl)amino)-5-nitropyridin-3-yl)sulfonyl)-4-(2-((R or S)-3-(2-isopropylphenyl)morpho-lino)-7-azaspiro[3.5]nonan-7-yl) benzamide]
IC50 [1]: ≤ 1 nM | IC50 [2]: 1 nM | IC50 [3]: ≤ 1 nM

CC(C)c1ccccc1[C@H]1CCCN1C1CC2(CCN(c3ccc(C(=O)NS(=O)(=O)c4cnc(NCC5(F)CCOCC5)c([N+](=O)[O-])c4)c(Oc4cnc5[nH]ccc5c4)c3)CC2)C1 [Example A-31b, (R)-2-((1H-pyrrolo[2,3-b]pyridin-5-yl)oxy)-N-((6-(((4-fluorotetra-hydro-2H-pyran-4-yl)methyl)amino)-5-nitropyridin-3-yl)sulfonyl)-4-(2-(2-(2-isopropylphenyl)pyrrolidin-1-yl)-7-azaspiro[3.5]nonan-7-yl)benzamide]
IC50 [1]: ≤ 1 nM | IC50 [2]: 2 nM | IC50 [3]: ≤ 1 nM

C[C@]1(O)CC[C@H](CNc2ncc(S(=O)(=O)NC(=O)c3ccc(N4CCC5(CC4)CC(N4CCNC[C@H]4c4ccccc4C4CC4)C5)cc3Oc3cnc4[nH]ccc4c3)cc2[N+](=O)[O-])CC1 [Example A-37, 2-((1H-pyrrolo[2,3-b]pyridin-5-yl)oxy)-4-(2-((R)-2-(2-cyclopropyl-phenyl)piperazin-1-yl)-7-azaspiro [3.5]nonan-7-yl)-N-((6-((((1r,4r)-4-hydroxy-4-methylcyclohexyl)methyl)amino)-5-nitropyridin-3-yl)sulfonyl)benzamide]
IC50 [1]: ≤ 1 nM | IC50 [2]: 1 nM | IC50 [3]: ≤ 1 nM

CC(C)c1ccccc1C1COCCN1C1CC2(CCN(c3ccc(C(=O)NS(=O)(=O)c4cnc(NCC5(C#N)CCOCC5)c([N+](=O)[O-])c4)c(Oc4cnc5[nH]ccc5c4)c3)CC2)C1 (single isomer, unassigned) [Example A-142, (R or S)-2-((1H-pyrrolo[2,3-b]pyridin-5-yl)oxy)-N-((6-(((4-cyanotetrahydro-2H-pyran-4-yl)methyl)amino)-5-nitro-pyridin-3-yl)sulfonyl)-4-(2-(3-(2-iso-propylphenyl)morpholino)-7-azaspiro [3.5]nonan-7-yl)benzamide]
IC50 [1]: ≤ 1 nM | IC50 [2]: 9 nM | IC50 [3]: ≤ 1 nM

CC(C)c1ccccc1C1COCCN1C1CC2(CCN(c3ccc(C(=O)NS(=O)(=O)c4cnc(NCC5CCOCC5)c([N+](=O)[O-])c4)c(Oc4cnc5[nH]ccc5c4)c3)CC2)C1 (single isomer, unassigned) [Example A-55a, (R or S)-2-((1H-pyrrolo[2,3-b]pyridin-5-yl)oxy)-4-(2-(3-(2-isopropyl-phenyl)morpholino)-7-azaspiro[3.5]nonan-7-yl)-N-((5-nitro-6-(((tetra-hydro-2H-pyran-4-yl)methyl)amino)pyridin-3-yl)sulfonyl)benzamide]
IC50 [1]: ≤ 1 nM | IC50 [2]: 5 nM | IC50 [3]: ≤ 1 nM

O=C(NS(=O)(=O)c1cc2c(c([N+](=O)[O-])c1)O[C@H](CN1CCOCC1)CO2)c1ccc(N2CCC3(CC2)CC(N2CCC[C@H]2c2ccccc2C2CC2)C3)cc1Oc1cnc2[nH]ccc2c1 (single isomer, unassigned) [Example E-38, 2-((1H-pyrrolo [2,3-b]pyridin-5-yl)oxy)-4-(2-((R or S)-2-(2-cyclopropylphenyl)pyrrolidin-1-yl)-7-azaspiro[3.5]nonan-7-yl)-N-(((R)-2-(morpholinomethyl)-8-nitro-2,3-dihydrobenzo [b][1,4]dioxin-6-yl)sulfonyl) benzamide]
IC50 [1]: ≤ 1 nM | IC50 [2]: 1 nM | IC50 [3]: ≤ 1 nM
